These results are taken from patent US20260327216A1, “SUBSTITUTED OXAZOLONE COMPOUND FOR DECREASING LEVELS OF IKZF I-4 PROTEINS” (BRISTOL-MYERS SQUIBB COMPANY, priority 2023, published 2026).

Some results are limits rather than exact numbers.

Type in all cases: cell-based
The target of assay [1] is IKZF3 Aiolos (Homo sapiens, UniProt Q96SW2+Q9UKT9). Description: Human CD8^+ T Cell Reprogramming Assay, IKZF3. The note with it: human PBMC, CD8+ T cells, 24 hours; for IKZF3 Aiolos Maximum Observed Degradation / Dmax: 100% = complete degradation; for Dmax: read-out: IKZF3 Aiolos Maximum Observed Degradation. More on the design: Cryopreserved healthy donor human peripheral blood mononuclear cells (PBMC); endogenous in cells; host or cells: human PBMC from healthy donors (CD8+ T cells by flow cytometry). On the procedure:
Cryopreserved healthy donor human peripheral blood mononuclear cells (PBMC) from healthy donors were thawed and seeded at 500,000 cells/well of 96-well round bottom plates in RPMI 1640 media (Gibco) supplemented with 10% FBS, Pen/Strep (Gibco), MEM-NEAA (Gibco), and sodium pyruvate (Gibco). Cells were treated with titrated doses of compound for 24 hours at 37° C., 5% CO2 before analyzing by flow cytometry.
For flow cytometry staining, cells were washed twice with flow cytometry staining buffer (Thermo Fisher) and incubated in Human Tru-stain Fc block (Biolegend) for 10 minutes before adding eFluor780 viability dye (Thermo Fisher) and surface marker antibody cocktail containing LD-eFluor780, CD3-BUV-395, CD4-BUV805, CD8-FITC, and CD25-BV605 for 30 minutes at 4° C. Cells were then fixed and permeabilized by incubation with permeabilization buffer (eBioscience FoxP3 buffer set 00-5523-00) for 30 minutes at 4° C. as per the kit manufacturer's instructions. Cells were washed twice with the Perm/Wash buffer supplied in the kit as per the manufacturer's instructions and incubated overnight at 4° C. with an intracellular antibody cocktail comprised of antibodies specific for the transcription factors (i.e., Foxp3-BV421, HELIOS-PE-Cy7, EOS-PE, IKAROS-PECF594, AIOLOS-AF647). Cells were washed twice with Perm/Wash buffer and resuspended in flow cytometry staining buffer (Thermo Fisher) prior to acquisition. Sample acquisition and analysis was performed using a BD LSRFortessa (BD Biosciences) flow cytometer. Single-stain controls for each fluorochrome were prepared using UltraComp eBead Compensation Beads (Thermo Fisher). Data were analyzed using FlowJo version 10 and GraphPad Prism Software.
Table D-1 lists the maximum observed degradation of the IKZF1 protein and IKZF3 protein as measured in the Human CD8^+ T Cell Reprogramming assay. The results in Table D-1 were rounded to two digits. In the Human CD8^+ T Cell Reprogramming assay, a value of 100% indicated no detectable protein remaining or complete degradation of the protein; and a value of 0% indicated no detectable degradation of the protein by the test compound.

Assay [2] has as its target IKZF2 Helios (Homo sapiens, UniProt Q96SW2+Q9UKS7). Kind of assay: Human Regulatory T Cell Degradation Assay, IKZF2. On the set-up: endogenous in cells; host or cells: FACS-sorted human CD4+CD127lowCD25+ Treg cells from healthy leukopaks. The note with it: human regulatory T cells, 20 hours; for Dmax: Regulatory T cell, 100% = complete degradation, read-out: IKZF2 Helios max % deg. observed. The procedure: (§1) Cryopreserved human regulatory T cells were thawed in RPMI+10% FBS+20 ng/mL IL-2. After being spun at 1200 rpm for 5 mins, the cells were resuspended in RPMI+10% FBS+20 ng/mL and rested at 37° C. with 5% CO2 for 3 hours. The cells were then plated at 40,000 cells/well in 40 μL RPMI+10% FBS+20 ng/ml human IL-2 in a 384 well cell culture plate prior to using acoustic dispensing technology (ECHO 555) for adding compounds of interest. Cell cultures were incubated for 20 hours at 37° C. and 5% CO2. In order to facilitate analysis, cell cultures were spun down at 1200 rpm for 5 minutes and the supernatant was discarded using an EL406 plate washer. After washing three times with 70 μL PBS, cell pellets were resuspended in 50 μL of near IR viability staining solution (Life Technologies, Cat #L34975) and incubated for 30 minutes on ice protected from light. Cells were washed three times with 70 μL PBS+0.5% BSA using an EL406 plate washer. After shaking the plate to dislodge the cell pellet, cells were resuspended in 50 μL of Fixation Buffer (eBioScience FoxP3 buffer set 00-5523-00) for 60 minutes at room temperature. After centrifuging and discarding the supernatant, cells were permeabilized with 50 μL of permeabilization buffer (eBioScience FoxP3 buffer set 00-5523-00) for 10 minutes at room temperature. Following permeabilization, cells were spun down and the supernatant was replaced with 30 μL fluorescently labelled antibodies against the intracellular targets Helios (Helios-APC [BioLegend, Cat #137222, 1:50])]), Aiolos, and Ikaros 1× Permeabilization buffer and staining reactions were incubated for 1 bour at room temperature; protected from light. Subsequently, 30 μL of 1× Permeabilization buffer was added prior to centrifuging the cells and discarding the supernatant. Stained cells were resuspended in 30 μL of flow cytometry staining buffer (PBS+0.5% BSA) and analyzed using an Intellicyt Ique Plus flow cytometer.
(§2) Table B-1 lists the maximum observed degradation of the IKZF1 protein and IKZF2 protein as measured in the Human Regulatory T Cell Degradation assay. The results in Table B-1 were rounded to two digits. In the Human Regulatory T Cell Degradation assay, a value of 100% indicated no detectable protein remaining or complete degradation of the protein; and a value of 0% indicated no detectable degradation of the protein by the test compound.

Assay [3] has as its target IKZF1 Ikaros (Homo sapiens, UniProt Q13422+Q96SW2). Description: Human Regulatory T Cell Degradation Assay, IKZF1. Conditions: human regulatory T cells, 20 hours; for Dmax: Regulatory T cell, 100% = complete degradation, read-out: IKZF1 Ikaros max % deg. observed; for DC50: concentration reducing protein level by 50% vs DMSO. On the set-up: Cryopreserved healthy donor human peripheral blood mononuclear cells (PBMC); endogenous in cells; host or cells: human PBMC from healthy donors (CD8+ T cells by flow cytometry). On the procedure:
as §1, §2

Setting [4] is: concentration reducing protein level by 50% vs DMSO.

IKZF1 Ikaros, sequence (Q13422 whole entry): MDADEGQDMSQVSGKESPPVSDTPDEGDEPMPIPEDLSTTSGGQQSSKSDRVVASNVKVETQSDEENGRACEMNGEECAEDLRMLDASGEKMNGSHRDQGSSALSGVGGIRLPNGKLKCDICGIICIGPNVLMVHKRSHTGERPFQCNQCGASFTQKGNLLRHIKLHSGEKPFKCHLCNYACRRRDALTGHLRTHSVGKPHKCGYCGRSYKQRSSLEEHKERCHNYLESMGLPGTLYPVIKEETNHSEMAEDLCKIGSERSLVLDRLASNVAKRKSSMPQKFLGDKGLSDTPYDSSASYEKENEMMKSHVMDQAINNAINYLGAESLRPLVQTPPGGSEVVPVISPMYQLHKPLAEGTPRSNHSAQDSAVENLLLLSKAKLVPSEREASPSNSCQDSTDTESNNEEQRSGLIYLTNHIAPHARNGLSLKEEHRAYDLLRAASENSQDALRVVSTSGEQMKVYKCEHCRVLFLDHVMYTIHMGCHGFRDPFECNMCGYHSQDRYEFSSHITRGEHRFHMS
IKZF1 Ikaros, sequence (Q96SW2 whole entry): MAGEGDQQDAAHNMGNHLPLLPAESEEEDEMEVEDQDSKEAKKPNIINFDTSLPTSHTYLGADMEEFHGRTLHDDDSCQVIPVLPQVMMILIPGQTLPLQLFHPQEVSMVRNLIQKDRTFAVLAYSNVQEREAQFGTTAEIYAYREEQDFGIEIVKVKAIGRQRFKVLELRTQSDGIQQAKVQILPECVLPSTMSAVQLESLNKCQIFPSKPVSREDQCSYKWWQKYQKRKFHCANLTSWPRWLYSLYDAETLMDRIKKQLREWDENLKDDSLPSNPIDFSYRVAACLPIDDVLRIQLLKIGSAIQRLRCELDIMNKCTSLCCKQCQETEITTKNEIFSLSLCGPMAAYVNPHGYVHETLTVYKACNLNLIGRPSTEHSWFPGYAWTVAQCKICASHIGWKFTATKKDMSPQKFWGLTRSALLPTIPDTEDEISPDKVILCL
IKZF1 Ikaros, sequence (Q16531 whole entry partner): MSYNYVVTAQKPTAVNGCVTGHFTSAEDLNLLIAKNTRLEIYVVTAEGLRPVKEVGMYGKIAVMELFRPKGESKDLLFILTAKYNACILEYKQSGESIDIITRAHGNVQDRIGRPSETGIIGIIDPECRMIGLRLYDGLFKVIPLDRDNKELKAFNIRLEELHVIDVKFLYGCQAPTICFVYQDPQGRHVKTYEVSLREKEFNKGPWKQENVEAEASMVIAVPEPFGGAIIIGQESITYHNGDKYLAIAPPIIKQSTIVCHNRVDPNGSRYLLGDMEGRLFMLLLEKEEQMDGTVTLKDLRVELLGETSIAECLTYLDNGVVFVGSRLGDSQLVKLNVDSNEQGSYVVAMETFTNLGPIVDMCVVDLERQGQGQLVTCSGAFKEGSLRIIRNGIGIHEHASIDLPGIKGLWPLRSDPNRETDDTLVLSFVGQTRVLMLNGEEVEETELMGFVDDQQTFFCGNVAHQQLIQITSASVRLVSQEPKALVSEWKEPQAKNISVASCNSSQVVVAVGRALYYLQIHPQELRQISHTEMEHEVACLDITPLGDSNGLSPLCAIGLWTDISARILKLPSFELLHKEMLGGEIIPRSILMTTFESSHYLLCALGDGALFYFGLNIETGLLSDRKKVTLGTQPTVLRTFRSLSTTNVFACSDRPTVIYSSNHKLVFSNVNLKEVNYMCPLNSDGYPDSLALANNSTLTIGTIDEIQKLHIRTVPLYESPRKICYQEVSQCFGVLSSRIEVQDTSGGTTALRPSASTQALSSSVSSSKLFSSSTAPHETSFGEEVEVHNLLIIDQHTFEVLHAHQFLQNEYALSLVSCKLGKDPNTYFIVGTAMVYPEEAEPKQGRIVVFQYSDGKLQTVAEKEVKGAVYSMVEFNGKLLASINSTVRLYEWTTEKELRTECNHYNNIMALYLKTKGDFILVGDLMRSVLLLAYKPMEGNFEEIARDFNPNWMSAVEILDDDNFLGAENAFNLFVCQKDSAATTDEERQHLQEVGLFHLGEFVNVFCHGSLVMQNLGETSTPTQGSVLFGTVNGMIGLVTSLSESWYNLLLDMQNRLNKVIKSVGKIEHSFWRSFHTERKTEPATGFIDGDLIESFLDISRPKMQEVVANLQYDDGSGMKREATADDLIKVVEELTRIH
IKZF2 Helios, sequence (Q9UKS7 whole entry): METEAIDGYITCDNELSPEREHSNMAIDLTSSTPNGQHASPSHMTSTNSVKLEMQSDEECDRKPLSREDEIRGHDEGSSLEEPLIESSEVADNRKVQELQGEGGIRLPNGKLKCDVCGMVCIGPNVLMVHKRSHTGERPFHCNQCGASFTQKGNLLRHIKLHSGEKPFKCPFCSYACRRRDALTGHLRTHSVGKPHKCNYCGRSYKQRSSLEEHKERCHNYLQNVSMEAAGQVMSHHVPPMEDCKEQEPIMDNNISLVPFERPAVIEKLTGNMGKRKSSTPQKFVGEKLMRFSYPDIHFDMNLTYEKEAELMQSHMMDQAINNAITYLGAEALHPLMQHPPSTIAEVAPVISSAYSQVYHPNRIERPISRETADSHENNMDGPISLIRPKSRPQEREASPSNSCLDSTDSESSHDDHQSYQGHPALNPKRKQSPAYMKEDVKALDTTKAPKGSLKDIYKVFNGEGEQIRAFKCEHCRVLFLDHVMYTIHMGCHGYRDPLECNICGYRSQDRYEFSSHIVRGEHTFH
IKZF2 Helios, sequence (Q96SW2 whole entry): as the sequence (Q96SW2 whole entry) above
IKZF2 Helios, sequence (Q16531 whole entry partner): as the sequence (Q16531 whole entry partner) above
IKZF3 Aiolos, sequence (Q9UKT9 whole entry): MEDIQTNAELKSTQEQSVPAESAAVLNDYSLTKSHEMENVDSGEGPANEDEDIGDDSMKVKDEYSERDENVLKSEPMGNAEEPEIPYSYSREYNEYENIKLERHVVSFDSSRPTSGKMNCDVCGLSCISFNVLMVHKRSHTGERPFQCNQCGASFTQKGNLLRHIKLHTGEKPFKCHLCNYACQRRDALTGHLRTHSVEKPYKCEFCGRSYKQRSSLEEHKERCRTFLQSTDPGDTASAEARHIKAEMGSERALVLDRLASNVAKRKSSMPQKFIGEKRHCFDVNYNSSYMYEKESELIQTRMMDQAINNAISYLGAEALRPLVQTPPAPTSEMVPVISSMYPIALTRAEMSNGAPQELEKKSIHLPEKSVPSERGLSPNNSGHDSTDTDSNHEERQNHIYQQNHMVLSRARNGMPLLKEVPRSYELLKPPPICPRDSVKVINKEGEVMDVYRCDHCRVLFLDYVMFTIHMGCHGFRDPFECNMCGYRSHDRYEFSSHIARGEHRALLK
IKZF3 Aiolos, sequence (Q96SW2 whole entry): as the sequence (Q96SW2 whole entry) above
IKZF3 Aiolos, sequence (Q16531 whole entry partner): as the sequence (Q16531 whole entry partner) above

With `O=C1CCC(n2cc(-c3ccccc3)oc2=O)C(=O)N1` (stereo not drawn) [Comparative Compound A, 3-(2-oxo-5-phenyloxazol-3(2H)-yl)piperidine-2,6-dione], in assay [1], the “IKZF3 Aiolos Maximum Observed Degradation” value is given as 80% and the Dmax turned out to be 80%. Moreover, the Dmax in assay [2] stood at 57%. Besides, in assay [3], the Dmax was determined as 24% and the DC50 is above 10 µM.

For `O=C1CCC(n2cc(-c3ccc(Br)cc3F)oc2=O)C(=O)N1` (stereo not drawn) [Comparative Compound B, 3-(5-(4-bromo-2-fluorophenyl)-2-oxooxazol-3(2H)-yl)piperidine-2,6-dione], the Dmax in assay [1] came out at 0%; in assay [2], 25%; in assay [3], 47%.

With `Cc1cc(-c2ccc(-c3cn(C4CCC(=O)NC4=O)c(=O)o3)c(F)c2)nc(N)c1OC(F)F` (stereo not drawn) [Example 1, 3-(5-(4-(6-Amino-5-(difluoromethoxy)-4-methylpyridin-2-yl)-2-fluorophenyl)-2-oxooxazol-3(2H)-yl)piperidine-2,6-dione], the “IKZF3 Aiolos Maximum Observed Degradation” value in assay [1] (1440 min) is on record as 69-74%. The Dmax is 69 to 74% in assay [1], 90% in assay [2] and 46% in assay [3]. Moreover, the DC50 was 22 to 25 nM in assay [1] (setting [4]), 0.68 nM in assay [2] (setting [4]) and above 10 µM in assay [3].
